The source of these data is patent publication US6872716B2, “Antipsychotic sulfonamide-heterocycles, and methods of use thereof” (Sepracor, Inc., priority 2000, dated 2005).

One experiment addresses NMDA (PCP site). The experiment can be described thus: NMDA receptor (PCP site) radioligand binding screen. As to the method:
(§1) The NMDA receptor (PCP site) screen was conducted according to Goldman, M. E. et al. FEBS Letters 85, […]. The norepinephrine transporter screen was conducted according to Galli A et al. J. Exp. Biol. 1995, 198, 2197. The dopamine and serotonin transporter screens were conducted according to Gu, H. et al. J. Biol. Chem. 1994, 269(10), 7124. The sigma-1 screen was conducted according to de Costa B. R. FEBS 1989, 251, 53.

The target in the next experiment is 5-HT Transporter (UniProt P31645). Briefly: serotonin transporter radioligand binding screen. As to the method:
as §1

The next experiment addresses NE Transporter (Homo sapiens, UniProt P23975). Briefly: norepinephrine transporter radioligand binding screen. As to the method:
as §1

For another experiment, the target named is Sigma-1 (human) (Homo sapiens, UniProt Q99720). Briefly: sigma-1 radioligand binding screen. As to the method: as §1
Sequence of Sigma-1 (human) (Q99720 whole entry): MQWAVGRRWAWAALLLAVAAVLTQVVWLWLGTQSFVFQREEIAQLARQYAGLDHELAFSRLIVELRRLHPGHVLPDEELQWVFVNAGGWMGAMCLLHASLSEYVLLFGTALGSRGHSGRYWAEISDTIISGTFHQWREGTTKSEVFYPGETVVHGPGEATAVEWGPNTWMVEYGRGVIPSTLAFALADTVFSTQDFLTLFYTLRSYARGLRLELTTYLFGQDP
The nature of experiment [1]: acetic acid writhing model (in vivo analgesia). The note with it: iv; administered intravenously. The method, then:
(§2) The acetic acid writhing model was conducted according to Inoue K. et al. Arzneim. Forsch 1991, 41(I), 235. The formalin model was conducted according to Hunskaar, S. et al. J. Neurosci Meth. 1985, 14, 69. The tail flick model was conducted according to D'Amour F. E. and Smith D. L. J. Pharmacol. Exp. Ther. 1941, 72, 74. Compound 6 was administered intravenously.

A short description of experiment [2]: tail flick model (in vivo analgesia). The conditions noted are these: iv; administered intravenously. As to the method:
as §2

A short description of experiment [3]: formalin model (in vivo analgesia). The note with it: iv; administered intravenously. As to the method:
as §2

The test system of experiment [4] is rats. The experiment can be described thus: learned helplessness test in rats. The conditions noted are these: male Wistar rats; dose of 5 mg/kg i.p. The format is in vivo, rat. The method, then: The objective of this study was to evaluate the potential antidepressant activity of compounds in the learned helplessness test in rats.
Male rats (Wistar, Iffa Credo, St.-Germain/1″Arbresle, France) with initial weight of 180-200 g at the beginning of the experiments were housed 3 per cage under dark cycle of 12 h-12 h (light on at 7:00 a.m., off at 7:00 p.m.) at a room temperature of 21±1° C., with a minimum 50% humidity, for a minimum of 7 days before the experiments. They had free access to commercial rat chow (UFAC, Vigney, France, ref 811002) and tap water. The learned helplessness test included two phases over 5 days.
Phase 1: Helplessness induction
On day 1, inescapable electric foot-shocks were delivered individually to rats in a Plexiglas chamber (20 cm×16 cm×16 cm [1×w×h]) with a floor consisting of stainless-steel rods. A constant-current shocker (LETICA LI 100-26, Barcelona, Spain) was used to deliver inescapable shocks (0.8 m A scrambled DC current; 10 s duration every 20 s) over 60 minutes. “Non-helplessness” control rats were placed for 1 h in identical chambers without shocking.
Phase 2: Conditional Avoidance Training
Avoidance training in automated two-way shuttle-box (LETICA LI916, Barcelona, Spain) took place on day 3, 4, and 5. The shuttle-box is divided into two equal-sized chambers connected by a 10×10 cm opening. […]

Experiment [5] relates to rats. The experiment can be described thus: MK-801-induced locomotion and stereotypies, animal model of psychosis. The format is in vivo, rat. The note with it: male Wistar rats; 1.0, 2.5 and 5.0 mg/kg i.p.; 0.3 mg/kg MK-801 i.p. From the text:
The non-competitive NMDA receptor antagonist MK-801 induces stereotypies and hyperactivity in rodents (see: Carlsson, M. and Carlsson, A., J. Neural Transm., 75, 221 (1989)) by interacting with the NMDA receptor-associated ion channel. Phencyclidine, which also interferes with the NMDA receptor, produces psychotic effects in humans similar in many respects to schizophrenia. […] The neuroleptics haloperidol, clozapine and raclopride are able to reverse the behavioral changes induced by MK-801 in rats (Gattaz, W. F., Schummer, B. and Behrens, S., J. Neural Transm., 96, 227 (1994)). Therefore the MK-801-induced activity and stereotypies in rats may represent an appropriate animal model to test the potential efficacy of antipsychotic drugs.
Male Wistar rats (Iffa Credo, St Germain/l'Arbresle, France), weight 250-300 g were housed 2 per cage on a 12 h/12 h light dark cycle (lights on at 7.00 a.m.) at a room temperature of 21±2° C. for a minimum of 5 days before testing. All animals had access to commercial food and tap water ad libitum. […]
On the day of the experiment, rats were treated with either reference drug vehicle, the reference drugs haloperidol or clozapine the test compound vehicle or test compounds. […] Stereotypies, defined as wall-contacts with the snout, and locomotion, defined as turn-rounds of 180°, were assessed during 5 minute periods.

Sequence of NE Transporter (P23975 whole entry): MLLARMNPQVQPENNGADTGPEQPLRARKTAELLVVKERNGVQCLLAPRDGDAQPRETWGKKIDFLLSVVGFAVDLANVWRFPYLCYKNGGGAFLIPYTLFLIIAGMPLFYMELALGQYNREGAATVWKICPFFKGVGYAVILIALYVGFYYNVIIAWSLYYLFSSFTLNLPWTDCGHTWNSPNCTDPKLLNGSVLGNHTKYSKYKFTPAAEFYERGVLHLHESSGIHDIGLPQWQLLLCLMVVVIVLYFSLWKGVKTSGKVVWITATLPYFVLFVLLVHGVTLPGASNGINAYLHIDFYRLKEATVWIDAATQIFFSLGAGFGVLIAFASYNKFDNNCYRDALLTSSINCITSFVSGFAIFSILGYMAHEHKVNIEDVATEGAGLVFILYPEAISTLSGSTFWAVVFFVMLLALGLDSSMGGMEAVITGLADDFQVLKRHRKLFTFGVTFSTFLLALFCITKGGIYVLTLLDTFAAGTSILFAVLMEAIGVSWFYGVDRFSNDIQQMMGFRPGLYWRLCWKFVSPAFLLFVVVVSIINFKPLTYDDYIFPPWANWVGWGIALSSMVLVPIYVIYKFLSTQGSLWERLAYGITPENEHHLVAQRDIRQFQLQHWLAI

Take `CS(=O)(=O)N(CC1CCCNC1)c1ccccc1` (stereo not drawn) [Compound 5, N-phenyl-N-piperidin-3-ylmethyl-methanesulfonamide]: at NMDA (PCP site), the IC50 is 108 nM.
With `CS(=O)(=O)N(C[C@@H]1CCCN(CC2(c3ccc(Cl)cc3)CCC2)C1)c1ccccc1` [Compound 21, N-{1-[1-(4-Chloro-phenyl)-cyclobutylmethyl]-piperidin-3-R-ylmethyl}-N-phenyl-methanesulfon-amide], the IC50 at 5-HT Transporter is 2800 nM; at NE Transporter it was 62 nM.
On to `CS(=O)(=O)N(C[C@@H]1CCCN(CCc2ccccc2)C1)c1ccccc1` [Compound 12, (R)-N-(1-phenethyl-pieridin-3-ylmethyl)-N-phenyl-methanesulfonamide], for which the IC50 at Sigma-1 (human) was 550 nM.
Take `CS(=O)(=O)N(CC1CCCN(CCc2ccccc2)C1)c1ccccc1` (racemic) [Compound 6, N-(1-phenethyl-pieridin-3-ylmethyl)-N-phenyl-methanesulfonamide]: the ED50 turned out to be 7.8 mg/kg in [1], 23 mg/kg in experiment [2] and 18 mg/kg in experiment [3]. On Sigma-1 (human), this compound returned an IC50 of 118 nM. In addition, in the experiment with rats [4], the “activity in the learned helplessness test” value is on record as “active”.
Take `CS(=O)(=O)N(C[C@H]1CCCN(CCc2ccccc2)C1)c1ccccc1` [Compound 16, (S)-N-(1-phenethyl-pieridin-3-ylmethyl)-N-phenyl-methanesulfonamide]: in the experiment with rats [5], the MK-801-induced locomotion entry is “dose-dependent reduction” and the MK-801-induced stereotypies result is on record as “dose-dependent reduction”. Besides, the IC50 on Sigma-1 (human) is 22 nM.

Usually IC50 stands for the point on the concentration scale where inhibition reaches its midpoint. As a reminder, the ED50 is the dose at which the effect has come halfway, by size or by number of responders. A high value points to a need for a large dose.
